# Test results reported in US20220221458A1, “NOROVIRUS-BINDING PEPTIDE” (Kao Corporation, priority 2019, published 2022).
# Tested on: norovirus VLPs (GII.4, GII.3, GII.17)
# Assay: In vitro selection by cDNA display against VLPs with appearance frequency analysis of sequences
# Conditions: count among peptide aptamer sequences obtained after in vitro selection cycles (7 cycles GII.4, 5 cycles GII.3 and GII.17)
# Method: The constructed cDNA display and VLPs were incubated in 100 μL of a dialysis selection buffer (20 mM HEPES (pH 7.4), 150 mM NaCl, and 0.05% s Tween 20) at the concentrations shown in Table 9 below at 25° C. for 30 minutes. Subsequently, the resultant was diluted to 1 mL with the dialysis selection buffer, and was put in Float-A-Lyzer G2 Dialysis Device CE, 1000kD MWCO (manufactured by Spectrum Laboratories, Inc.) and was dialyzed with 1 L of the dialysis selection buffer as the external solution at 25° C. During the dialysis, the external solution was replaced with new one 3 times every 2 hours, and the dialysis was performed overnight (for 8 hours) after the 4th replacement. The dialysis product was concentrated with Amicon Ultra 100K (manufactured by Merck Millipore S.A.S.) at 14,000×g for 5 minutes.
# To an immunoplate (C-BOTTOM, CLEAR, MICROLON (registered trademark), HIGH BINDING, manufactured by Greiner Bio-One), 100 μL of 3 μg/mL GII.3 or GII.17 VLP solution was added and immobilization was performed at 4° C. overnight. Subsequently, the solution was discarded, and 200 μL of a blocking agent (EMD Millipore™ Blok™ NSB Blocking agents, Thermo Fisher Scientific) was added, followed by gently stirring at room temperature for 2 hours for blocking. On this occasion, wells not immobilizing the VLP were also subjected to similar blocking to be used in preselection.
# The solution was discarded from the wells, the wells were washed with 200 μL of a wash buffer (10 mM Hepes (pH 7.4), 150 mM NaCl, and 0.05% Tween 20) three times, and 100 μL of cDNA display (constructed from 1.5 pmol of mRNA-linker) was then put in the wells not immobilizing the VLP, followed by gently stirring at room temperature for 30 minutes to perform preselection. Subsequently, the supernatant containing cDNA display that had not bound to the blocking agent was put in the wells immobilizing the VLP, followed by gently stirring at room temperature for 30 minutes to be bound to the VLP. The supernatant was discarded, washing with 100 μL of the wash buffer was performed four times, and 100 μL of a 5′ SDS solution was then added, followed by incubation at 50° C. for 15 minutes to elute the bound cDNA display.
# Subsequently, the VLP-cDNA display complex obtained above was diluted to 100 μL with a dialysis selection buffer, and 10 μL of a coprecipitating agent (Quick-Precip Plus Solution, manufactured by EdgeBio) and 220 μL of 100% ethanol were added, followed by centrifugation at 20,000×g for 5 minutes. Subsequently, the supernatant was discarded, and 1 mL of 70, ethanol was added for rinsing. […] The PCR program was (a) 98° C. for 2 minutes, (b) 95° C. for 20 seconds, (c) 69° C. for 20 seconds, (d) 72° C. for 20 seconds (steps (b) to (d) were performed 25 cycles), and (e) 72° C. for 1 minute.
# After the in vitro selection cycle (7 cycles for GII.4 and 5 cycles for GII.3 and GII.17 based on the libraries of 7 cycles obtained by GII.4 dialysis), a sequence library was prepared by the following method, and the sequence information was analyzed. The preparation of the sequence library and the sequencing were performed according to the 16S Metagenomic Sequencing Library Preparation protocol (manufactured by Illumina, Inc.).
# The Fastq file of the obtained sequence was converted to a Fasta file, all of the obtained sequences were simultaneously translated from the first base of the start codon (ATG) at position 115 to the third base of the cysteine codon (TGC) at position 156 of the library sequence (SEQ ID NO: 279) using software MEGA.
row,Substance,Appearance Frequency
1,61 (PVRALC; Designed peptide) [compound 61],9
2,94 (TVASNN; Designed peptide) [compound 94],8
3,84 (LASSGH; Designed peptide) [compound 84],8
4,103 (AHLHCD; Designed peptide) [compound 103],7
5,32 (IMSSIG; Designed peptide) [compound 32],11
6,259 (VGMHHS; Designed peptide) [compound 259],6
7,182 (GLLIPF; Designed peptide) [compound 182],6
8,90 (SSCVMP; Designed peptide) [compound 90],8
9,176 (FQYAHW; Designed peptide) [compound 176],6
10,158 (VWYWTS; Designed peptide) [compound 158],7
11,177 (FTQDAV; Designed peptide) [compound 177],6
12,112 (GHFDAR; Designed peptide) [compound 112],7
13,159 (VYFIPD; Designed peptide) [compound 159],7
14,71 (CNLIAK; Designed peptide) [compound 71],8
15,9 (GEHAHS; Designed peptide) [compound 9],15
16,101 (YEGRND; Designed peptide) [compound 101],8
17,74 (FPYARN; Designed peptide) [compound 74],8
18,240 (RNHSRI; Designed peptide) [compound 240],6
19,254 (STEFAR; Designed peptide) [compound 254],6
20,102 (AFTSHW; Designed peptide) [compound 102],7
21,221 (NRVKPR; Designed peptide) [compound 221],6
22,255 (STLVCP; Designed peptide) [compound 255],6

row,Substance,Appearance Frequency
1,105 (EEMIVS; Designed peptide) [compound 105],7
2,39 (EMSRHC; Designed peptide) [compound 39],10
3,193 (HMMSRL; Designed peptide) [compound 193],6
4,202 (ILTHQH; Designed peptide) [compound 202],6
5,161 (WVYARR; Designed peptide) [compound 161],7
6,73 (EWAVSK; Designed peptide) [compound 73],8
7,120 (IGKGMV; Designed peptide) [compound 120],7
8,137 (QDRVTS; Designed peptide) [compound 137],7
9,8 (PCSYFS; Designed peptide) [compound 8],17
10,132 (NHDVRF; Designed peptide) [compound 132],7
11,194 (HQTGRL; Designed peptide) [compound 194],6
12,246 (SAMFAS; Designed peptide) [compound 246],6
13,155 (VMVGPS; Designed peptide) [compound 155],7
14,59 (MAWIGS; Designed peptide) [compound 59],9
15,215 (NAVSLK; Designed peptide) [compound 215],6
16,189 (HHNAPI; Designed peptide) [compound 189],6
17,243 (RTLLVQ; Designed peptide) [compound 243],6
18,72 (DFGQSS; Designed peptide) [compound 72],8
19,58 (KFSHRK; Designed peptide) [compound 58],9
20,197 (HWLRSV; Designed peptide) [compound 197],6
21,28 (VMMQCP; Designed peptide) [compound 28],12
22,50 (VIEMLD; Designed peptide) [compound 50],10

row,Substance,Appearance Frequency
1,128 (LWNMYD; Designed peptide) [compound 128],7
2,86 (MSTHKV; Designed peptide) [compound 86],8
3,260 (VMSPCN; Designed peptide) [compound 260],6
4,192 (HLGFHT; Designed peptide) [compound 192],6
5,143 (RRCKLL; Designed peptide) [compound 143],7
6,190 (HKASHW; Designed peptide) [compound 190],6
7,121 (ILISSC; Designed peptide) [compound 121],7
8,96 (VGRFPQ; Designed peptide) [compound 96],8
9,47 (TTSHFK; Designed peptide) [compound 47],10
10,249 (SIITRR; Designed peptide) [compound 249],6
11,257 (TNRTVS; Designed peptide) [compound 257],6
12,266 (YGKQRG; Designed peptide) [compound 266],6
13,181 (GKVTFD; Designed peptide) [compound 181],6
14,122 (ISRRGH; Designed peptide) [compound 122],7
15,173 (EEKTRR; Designed peptide) [compound 173],6
16,170 (DSKLHN; Designed peptide) [compound 170],6
17,43 (HIHGRE; Designed peptide) [compound 43],10
18,91 (SSLALH; Designed peptide) [compound 91],8
19,135 (NRHLDP; Designed peptide) [compound 135],7
20,262 (VPLLSR; Designed peptide) [compound 262],6
21,114 (GSLDIM; Designed peptide) [compound 114],7
22,18 (SRWCLS; Designed peptide) [compound 18],13
